The values that follow come from patent publication US10781420B2, “Method for producing cerebellar progenitor tissue” (RIKEN, priority 2014, dated 2020).

Format in all cases: cell-based
Assay [1] relates to Purkinje cells induced from human pluripotent stem cell aggregates. As to the kind of experiment: Patch clamp analysis of Purkinje cells induced from human pluripotent stem cells. The following applies: AMPA receptor inhibitor. Here is the method:
Mature Purkinje cells were differentiated from human pluripotent stem cell aggregates according to the method of Example 3. Using the Patch clamp technique, the electrophysiological reaction thereof was analyzed.

Assay [2] relates to Human ES cells (KhES-1). As to the kind of experiment: Differentiation of human ES cell aggregates (SFEBq method) into midbrain-hindbrain boundary neural progenitors. As for the experimental part:
Human ES cells (KhES-1) subjected to maintenance culturing on MEF by a conventional method were used. To differentiate human ES cells by the serum-free floating culture of embryoid body-like aggregates with quick reaggregation (SFEBq method), human ES cells were enzymatically dispersed to single cells, according to the method of Nakano et al. (Cell Stem Cell, 10(6), 771-785, 2012), and reaggregated using a low-cell-adhesive V-bottom 96 well plate (SUMITOMO BAKELITE). 6,000 cells were seeded per well, and cultured in, as a differentiation medium, CDM medium [chemical synthesis medium without a growth factor (growth-factor-free Chemically Defined Medium; gfCDM; Wataya et al., Proc. Natl. Acad. Sci. USA, 105, 11796-11801, 2008) supplemented with insulin (7 μg/ml) and apo-transferrin (15 μg/ml)] under 5% CO2 at 37° C.
The seeding day is taken as day 0 of differentiation culturing. […] […] On day 7, ⅓ of the medium was exchanged with a differentiation medium free of Y-27632, SB431542 and Fgf2. On day 14 of culturing, the medium was completely substituted by a differentiation medium free of Y-27632, SB431542 and FGF2. The cell aggregates were fixed and sliced, and tissue differentiation was analyzed by the immunofluorescence method and quantitative PCR method.

Assay [3] deals with Human pluripotent stem cell aggregates. Put plainly: Self-formation of cerebellar plate tissue (Kirrel2 positive neuroepithelium) from human pluripotent stem cell aggregates. The following applies: day 35; cells exposed to Fgf2. Here is the method: The was aggregates were transferred to a low-cell-adhesion 10 cm dish on and after day 21, and cultured in a neural culture medium (Neurobasal/GlutaMaxI/N2, all Life Technologies). On day 28 of culturing, the total amount of the medium was exchanged with the same neural culture medium, and differentiation of the tissue was analyzed by the immunofluorescence method on day 35 of culturing.
Separated Kirrel2 positive cells, and cerebellar granule cell progenitors prepared from the upper rhombic lip of embryonic day 14 mouse were dispersed into single cells by cell dispersion enzyme (TrypLE, Life Technologies), and cocultured on a cover glass coated with poly D-lysine/laminin in DMEM/F12/10% FBS medium (5% CO2, 37° C.). In coculture, human pluripotent stem cell-derived Kirrel positive cells (1 vol) relative to mouse-derived cerebellar granule cell progenitors (10 vol) were mixed. After 6-12 hr, DMEM/F12/N2/BSA/Tri-iodothyronine (T3) was added to decrease the FBS concentration to about 0.8%.

The mark [4] stands for this setting: FGF2 50 ng/ml day 2 to day 7 vs Fgf2 non-addition, quantitative PCR.

`NS(=O)(=O)c1cccc2c1c([N+](=O)[O-])cc1nc(O)c(O)nc12` [NBQX]: the “miniature excitatory postsynaptic current” value in assay [1] is “suppression of miniature excitatory postsynaptic current”.

Regarding “FGF2: known cytokine also called basic fibroblast growth factor (bFGF); first fibroblast growth factor”, the “differentiation into neural progenitors in the midbrain-hindbrain boundary” value in assay [2] (FGF2 20 ng/ml) was “promoted differentiation into neural progenitors in the midbrain-hindbrain boundary”; in assay [2] (FGF2 100 ng/ml), “promoted differentiation into neural progenitors in the midbrain-hindbrain boundary”; in assay [2] (FGF2 5-10 ng/ml (concentration used for maintenance culturing of ES cells)), “did not show promotion of differentiation”; in assay [2] (FGF2 added days 2-7) it was “showed the highest effect”; in assay [2] (FGF2 added days 2-14), “exhibited a promoting effect”; in assay [2] (FGF2 added days 3-7) it was “exhibited a promoting effect”. Also, the “differentiation into neural progenitors in the midbrain-hindbrain boundary” value in assay [2] (FGF2 added days 4-7) was “exhibited a promoting effect”; in assay [2] (FGF2 added from day 0), “remarkable promotion of differentiation into neural progenitors in the midbrain-hindbrain boundary was not observed”; in assay [2] (FGF2 added from day 1), “remarkable promotion of differentiation into neural progenitors in the midbrain-hindbrain boundary was not observed”. The “expression of forebrain markers Six3 and Otx2” value in assay [2] (setting [4]) was “suppressed”. Also, the “expression of midbrain-hindbrain boundary markers En2, Gbx2” value in assay [2] (setting [4]) is “markedly increased”. The “expression of Fgf8 and Wntl (isthmic organizer)” value in assay [2] (FGF2 addition, days 10 and 14) was “enhanced”. In assay [3], the “kirrel2 positive cells (FACS, anti-kirrel2 antibody)” value is recorded as roughly 30%.
